According to patent US20220354826A1, “PLEUROMUTILIN (E)-4-(1-IMIDAZOYLMETHYL )CINNAMIC ACID ESTER WITH ANTI-DRUG RESISTANT BACTERIA ACTIVITY AND A METHOD OF PREPARING THE SAME” (SHAANXI UNIVERSITY OF SCIENCE AND TECHNOLOGY, priority 2021, published 2022):

How the values were obtained:
Assay type in all cases: cell-based
[1] = tested on: multi-resistant Staphylococcus aureus 171 (MRSA-171); assay: Paper diffusion method drug sensitivity test, MRSA-171; conditions: for inhibitory effect (in words): multi-drug resistant Staphylococcus aureus 171, paper diffusion; for Zone of inhibition: strain MRSA-171, drug sensitive paper 30 μg/tablet, 6.35 mm, LB plate, 37° C., 24 h, ≥17 mm sensitive, 15-16 mm intermediary, ≤14 mm resistance
Protocol: (§1) The antimicrobial efficacy was determined by a paper diffusion method drug sensitivity test.
(§2) Experimental strains: multi-resistant Staphylococcus aureus 171, multi-resistant Staphylococcus aureus 222, multi-resistant Staphylococcus aureus 575. The experimental strains were identified by Huashan Hospital Affiliated to Fudan University (Institute of Antibiotic of Fudan University).
(§3) Drug sensitive paper: The drug sensitive paper is a special drug sensitive paper with a diameter of 6.35 mm and a water absorption of 0.02 mL. The control drug was vancomycin (30 μg/tablet); the test drugs were pleuromutilin (E)-4-(1-imidazoyl-methyl)cinnamic acid ester (30 μg/tablet).
(§4) The experimental strains were inoculated in non-selective medium and placed in air at 37° C. for 24 h. Pick a single colony that grows well and inoculate it into broth medium, incubate at 35° C.±2° C. for 6 hours, and use LA broth medium to calibrate the concentration of the bacterial solution to 0.5 Mie turbidimetric tube ([…]). A bacterial suspension is obtained.
(§5) LB dry powder was weighed, sterilized at 103.4 Kpa, 121.3° C. high-pressure steam for 15 min, and then placed it in a 40° C.-50° C. water bath. A sterile empty plate (inner diameter 9 cm) was placed on the surface of the ultra-clean table water table, and […] to the plate. The thickness of each plate was 3 mm to 4 mm. After the plate was cooled at room temperature, it was stored in the refrigerator at 2° C.-8° C. A sterile cotton swab was used to dip the bacterial solution and to evenly coat the surface of the LB plate 3 times. After inoculation of the bacterial suspension, the LB plate was dried at room temperature for 3 min to 5 min. Sterile forceps were used to closely attach the antibacterial drug paper to the dish. The dish was put upside down and placed in a 37° C. incubator for 24 h. The results were observed by measuring the diameter. Taking 0.5% DMSO solution as a negative control, the antibacterial activity is expressed by the diameter of the inhibition zone. The inhibition zone ≥17 mm, sensitive; the inhibition zone of 15 mm-16 mm, intermediary; the inhibition zone ≤14 mm, drug resistance.

[2] = tested on: multi-resistant Staphylococcus aureus 575 (MRSA-575); assay: Paper diffusion method drug sensitivity test, MRSA-575; conditions: for inhibitory effect (in words): multi-drug resistant Staphylococcus aureus 575, paper diffusion; for Zone of inhibition: strain MRSA-575, drug sensitive paper 30 μg/tablet, 6.35 mm, LB plate, 37° C., 24 h, ≥17 mm sensitive, 15-16 mm intermediary, ≤14 mm resistance
Protocol: as §1, §2, §3, §4, §5

[3] = tested on: multi-resistant Staphylococcus aureus 222 (MRSA-222); assay: Paper diffusion method drug sensitivity test, MRSA-222; conditions: for inhibitory effect (in words): multi-drug resistant Staphylococcus aureus 222, paper diffusion; for Zone of inhibition: strain MRSA-222, drug sensitive paper 30 μg/tablet, 6.35 mm, LB plate, 37° C., 24 h, ≥17 mm sensitive, 15-16 mm intermediary, ≤14 mm resistance
Protocol: as §1, §2, §3, §4, §5

Structure (SMILES) | inhibitory effect (in words) [1] | Zone of inhibition [1] [mm] | inhibitory effect (in words) [2] | Zone of inhibition [2] [mm] | inhibitory effect (in words) [3] | Zone of inhibition [3] [mm]
O=C(O)/C=C/c1ccc(Cn2ccnc2)cc1 [(E)-4-(1-imidazoylmethyl)cinnamic acid] | no inhibitory effect | 0 | no inhibitory effect | 0 | no inhibitory effect | 0
C=C[C@]1(C)C[C@@H](OC(=O)COC(=O)/C=C/c2ccc(Cn3ccnc3)cc2)[C@]2(C)[C@H](C)CC[C@]3(CCC(=O)[C@H]32)[C@@H](C)[C@@H]1O | strong inhibitory effects | 16 | strong inhibitory effects | 15 | strong inhibitory effects | 17
C=C[C@]1(C)C[C@@H](OC(=O)CO)[C@]2(C)[C@H](C)CC[C@]3(CCC(=O)[C@H]32)[C@@H](C)[C@@H]1O [Pleuromutilin] | no inhibitory effect | 0 | no inhibitory effect | 0 | no inhibitory effect | 0
CN[C@H](CC(C)C)C(=O)N[C@H]1C(=O)N[C@@H](CC(N)=O)C(=O)N[C@H]2C(=O)N[C@H]3C(=O)N[C@H](C(=O)N[C@H](C(=O)O)c4cc(O)cc(O)c4-c4cc3ccc4O)[C@H](O)c3ccc(c(Cl)c3)Oc3cc2cc(c3O[C@@H]2O[C@H](CO)[C@@H](O)[C@H](O)[C@H]2O[C@H]2C[C@](C)(N)[C@H](O)[C@H](C)O2)Oc2ccc(cc2Cl)[C@H]1O [Vancomycin, vancomycin] |  | 17 |  | 21 |  | 18
